Values joined by “and” are separate entries in the source; they are usually repeats but may differ in a detail not shown here. Identical values can stand only once. Bridge positions count the residues as written; N and C are the ends. Square brackets hold non-standard residues; d marks the D form. Peptide text beside a SMILES is read from it. 2Nal = N[C@@H](Cc1ccc2ccccc2c1)C(=O)O; R5 = C=CCCC[C@@](C)(N)C(=O)O; S5 = C=CCCC[C@](C)(N)C(=O)O; βAla = NCCC(=O)O
How the values were obtained:
Colo320DM cells = test: cells; details: Colo320DM cells
Method: Colo320DM cells were selected for this assay as the proliferation of this particular cell line is dependent on BCL9 and β-catenin. ICG001, a known Wnt/β-catenin small molecule inhibitor, was used as a positive control. The cell viability at each treatment condition was analyzed using CellTiterGlo luminescent cell viability assay (Promega) according to the manufacturer's protocols.
Following the procedure described in Example 2, the ability of WX-035 to inhibit cell growth was tested in a cell viability assay using Colo320DM cells.

[1] = Pharmacokinetics in female balb/c mice; assay type: in vivo; details: mouse, plasma, 30 mg/kg intravenous or intraperitoneal
Method: The peptide solution was prepared at the fixed concentration of 0.5 mg/ml, and then suitable amounts were administered according to the dose. The same mixed solvent was used as a vehicle treatment. Blood samples (300 IA) were collected periodically from the retro-orbital vein at 0.25, 1, 2, 4, 6, 7, 12, and 24-hours post-dose (and 36 and 48 hours post-dose for intramuscular, subcutaneous, and intraperitoneal routes), followed by plasma separation for pending bioanalysis by LC-MS/MS. Standard PK parameters were calculated by non-compartmental analysis modules in WinNonlin Professional (v5.2, Pharsight, FDA-certified).
Two different administration routes, intravenous or intraperitoneal, were compared using 30 mg/kg WX-035. […] As observed with male ICR mice, the half-life of WX-035 in this experiment was more than 9 hours.

CT26 cells = test: CT26 syngeneic mouse model of colon cancer (Balb/c); assay type: in vivo, mice
Method: The syngeneic mouse model of colon cancer using CT26 was then assessed. Male Balb/c mice were injected subcutaneously in the right flank with 5×10^4 CT26 cells each at approximately 5 weeks of age. […] Eight mice were included in each treatment group.
The whole blood was taken from each mouse. Lymphocytes were purified from the blood samples by Ficoll, and the cells were stained with fluorescent anti-CD4 antibody. Data were measured by flow cytometry.
As described above, the whole blood was taken from each mouse. Lymphocytes were purified from blood by Ficoll, and the cells were stained with fluorescent anti-CD8 antibody. Data were measured by flow cytometry.
To further assess whether WX-024 is capable of modulating a tumor microenvironment, tumor and blood samples were collected in anticoagulation tubes at the end of the study. Single cells separation was performed and then cells were stained for FACS analysis. For cell surface staining, CD45-PerCP-Cy5, CD4-FITC, CD8-PE-Cy7, and CD25-PE were used. For intranuclear staining, cells were permeabilized overnight and then stained with Foxp3-APC for 60 minutes.
The in vivo efficacy of WX-035 in treating a cancer was assessed in a syngeneic mouse model, following the procedures described in Example 5.3. Trametinib, a known MEK inhibitor, was used as a comparison. Briefly, balb/c mice were inoculated with CT26 and treatment started when tumor volume reached to about 100 mm^3. The mice were then divided into three groups and began administered with a vehicle, 40 mg/kg WX-035, or 1 mg/kg trametinib for 7 consecutive days.
At the end of the study described in Example 9.2, a tumor sample from each mouse was collected to assess the effect of WX-035 in modulating T cell activation. The FACS analysis of each tumor sample was performed following the procedure described in Example 5. A shown in FIG. 36A, treatment with WX-035 reduced the total amount of CD45^+ cells. […] Likewise, Foxp3^+ CD25^+ T cells were reduced by WX-035 treatment (FIG. 36C). […] Furthermore, by increasing the ratio of cytotoxic T cells over regulatory T cells, WX-035 may induce a microenvironment that favors an immune reaction beneficial for tumor treatment. Of note, the samples collected from this experiment were also assessed for LGR5 expression.

[2] = Toxicity study of WX-035 in balb/c nude mice (H&E of major organs); assay type: in vivo; details: 30 mg/kg or 40 mg/kg i.v., 7 consecutive days
Method: To assess the toxicity effect of WX-035, balb/c nude mice were administered with a vehicle, or 30 mg/kg, or 40 mg/kg WX-035, following the procedure described in Example 5.6. At the end of the study, the mice were sacrificed and major organs were harvested for H&E staining.

CT26.WT cells = assay type: cell-based
Method: One of the stabilized polypeptides generated in Example 10 was tested in a cell viability assay and compared against WX-035. WX-037 was selected for this comparison study. The cell viability assay was performed with CT26.WT cells (ATCC), following the procedures described in Example 2. Briefly, 4000 cells per well of each plate were seeded with 50 μL opti-MEM medium. Each polypeptide, WX-035 or WX-037, was diluted with 2% FBS containing opti-MEM medium using 1 μL of 200× concentrated polypeptide in 99 μL of the medium. Each stock solution was diluted for testing a wide range of concentrations. 50 μL of 2× concentrated polypeptide was added to each well of the plate. Three days after the polypeptide addition, the viability of cells was measured using CellTiterGlo assay, according to the manufacturer's protocol.

FIG. 33B = test: FIG. 33B
Method: Table printed on a drawing sheet, FIG. 33B
The patent's description of the figure: FIG. 33A and FIG. 33B show PK data for WX-035 administered to male ICR mice (an outbred strain). The mice were treated with either 1 mg/kg, or 5 mg/kg WX-035 intravenously or 5 mg/kg WX-035 intraperitoneally.
First reader's note: Plasma PK parameters by route and dose; according to the description the animals are male ICR mice.

FIG. 34B = test: FIG. 34B
Method: Table printed on a drawing sheet, FIG. 34B
The patent's description of the figure: FIG. 34A and FIG. 34B show PK data for WX-035 administered to female balb/c mice (n=3). The mice were either intravenously or intraperitoneally administered with 30 mg/kg WX-035. Blood samples from each mouse were collected at 5 min, 15 min, 30 min, 1, 2, 4, 6, 8, 12, 24, 36, 48, and 72 hours post administration.
First reader's note: Substance, dose (30 mg/kg IV and IP) and species (female Balb/c nude mice, N=3) are printed in the title of FIG. 34A on the same sheet; the label F is printed once, between the mIL/min/kg row and the % row, so the mIL/min/kg row may in fact belong to CL.

[3] = Pharmacokinetics in male ICR mice; details: mouse, plasma, 5 mg/kg
Method: The tail vein was used for i.v. injections. […] Following injections, blood samples were obtained via the retro-orbital vein at 5 min, 1, 2, 4, 6, 8, 12, and 24 hours postdose. Plasma was obtained from the blood samples following mixing with sodium heparin and centrifugation.
LC analysis was done using an Agilent 100 HPLC. MS analysis was done using an AB Sciex API 4000. Calibration standards were prepared by serial dilution.
The maximum observed concentration (Cmax), terminal half-life (T1/2), total body clearance (CL), volume of distribution (Vz), area under the curve from the time of dosing to the last measurable concentration (AUC0-t), area under the curve from the time of dosing extrapolated to infinity (AUC0-inf), and bioavailability were calculated using noncompartmental analysis modules in the FDA-certified pharmacokinetic program WinNonlin Professional v5.2 (Pharsight).
Briefly, the mice were administered 1 mg/kg or 5 mg/kg intravenously, or 5 mg/kg intraperitoneally. Blood samples were collected at 15 min, 1, 2, 3, 6, 8, 12, and 24 hours post administration.

B16F10 cells = test: B16F10 syngeneic model in C57BL/6 mice; assay type: in vivo; details: 12 days
Method: C57BL/6 mice were inoculated with B16F10 cells. Female C57BL/6 mice aged 4-5 weeks were inoculated with B16F10 cells (2×10^5 cells in 0.05 ml per mouse) in the right flank. When the average tumor size of the mice reached 100 mm^3, the mice were divided into two groups (N=6). […] The treatment was intraperitoneally administered daily for 14 consecutive days.
The treatment was intraperitoneally administered daily for 12 consecutive days. At the end of the treatment, the mice were sacrificed and tumor and blood samples were collected in anticoagulation tubes. Single cell separation was performed for each sample and then stained for FACS analysis. For cell surface staining, CD45-PerCP-Cy5, CD4-FITC, CD8-PE-Cy7, and CD25-PE were used. The tumor samples were then stained with either an anti-CD4 antibody or an anti-CD8 antibody to assess the presence of T cells in the tumor samples. The tumor samples were also stained with an anti-CD194 antibody and anti-CD196 antibody to assess the presence of T helper 17 cells in the tumor samples.
The process of constructing WX-039 is described in Example 10. C57BL/6 mice were inoculated with B16F10 cells. […] The treatment was intraperitoneally administered daily for 12 consecutive days. At the end of the treatment, the mice were sacrificed and tumor and blood samples were collected in anticoagulation tubes. Tumor cells collected from the experiment were stained as described above and also with anti-CD205 antibody to assess whether WX compounds are capable of modulating dendritic cells.
The ability of WX-039 to suppress tumor growth was assessed in the animal model described in Example 5.4. Briefly, C57BL/6 mice were inoculated with B16 cells. Female C57BL/6 mice aged 5 weeks were inoculated with B16F10 cells (2×10^5 cells in 0.05 ml per mouse) in the right flank. When the average tumor size of the mice reached 100 mm^3, the mice were divided into two groups (N=3). The first group was administered 60 mg/kg WX-039 while the second group was treated with a vehicle. The treatment was intraperitoneally administered daily for 12 consecutive days.

[4] = Pharmacokinetics in female balb/c nude mice; assay type: in vivo; details: mouse, plasma, sc, 10 mg/kg subcutaneously
Method: The pharmacokinetic profiles of the four additional polypeptides constructed in Example 10 were assessed following the procedures described in Example 5.1. WX-029 and WX-036 were administered 1 mg/kg intravenously to female balb/c nude mice. Blood samples were collected at 15 min, 1, 2, and 4 hours post administration. FIG. 39A and FIG. 39B summarize the plasma concentration and the pharmacokinetic profiles calculated for WX-029. FIG. 40A and FIG. 40B summarize the plasma concentration and the pharmacokinetic profiles calculated for WX-036.
Similarly, WX-039 and WX-040 were also tested in female balb/c nude mice and assessed for their pharmacokinetic profiles. WX-039 was administered at 5 mg/kg intravenously, 5 mg/kg intraperitoneally, or 10 mg/kg subcutaneously. WX-040 was administered at 30 mg/kg intravenously or 30 mg/kg intraperitoneally. Blood samples were collected at 15 min, 1, 2, 4, 8, 24, 36, 48, and 72 hours post administration. FIG. 41A and FIG. 41B summarize the plasma concentration and the pharmacokinetic profiles calculated for WX-039. FIG. 42A and FIG. 42B summarize the plasma concentration and the pharmacokinetic profiles calculated for WX-040.

[5] = 20 mg/kg WX-024 or 60 mg/kg WX-039 i.p. daily

Structure (SMILES): CC[C@H](C)[C@@H]1NC(=O)[C@@](C)(NC(=O)[C@H](CCCNC(=N)N)NC(=O)[C@H](CC(C)C)NC(=O)[C@]2(C)CCCC=CCCC[C@@](C)(NC(C)=O)C(=O)N[C@@H](CC(C)C)C(=O)N[C@@H](CCC(N)=O)C(=O)N2)CCCC=CCCC[C@@](C)(C(=O)N[C@@H](CC(C)C)C(=O)N[C@@H](Cc2ccc3ccccc3c2)C(=O)NCCC(=O)NCCC(N)=O)NC(=O)[C@H](CCCNC(=N)N)NC(=O)[C@H](CCC(N)=O)NC1=O [WX-035, Xaa1LQXaa2LRXaa3IQRXaa4L] (Ac-[R5]LQ[S5]LR[S5]IQR[S5]L[2Nal][βAla][βAla]-NH2; staple 1-4, 7-11)
- effect on cell viability / cell growth (Colo320DM cells): improved IC50 value as compared to WX-024
- half-life [1]: > 9 h
- Foxp3+ CD25+ T cells in tumor (CT26 cells; WX-035, 7 days): reduced
- LGR5 expression in intestine samples (CT26 cells; WX-035, 7 days): reduced
- total amount of CD4+ or CD8+ T cells in tumor (CT26 cells; WX-035, 7 days): reduced
- total amount of CD45+ cells in tumor (CT26 cells; WX-035, 7 days): reduced
- ratio between cytotoxic T cells (CD8+) and Foxp3+ regulatory T cells (CT26 cells; WX-035, 7 days, vs vehicle): increased
- average tumor growth inhibition (CT26 cells; WX-035 i.p. for 7 consecutive days, day 7 / end of study): 88.44%
- H&E staining of major organs [2]: did not cause any significant abnormality to major organs
- IC50 (CT26.WT cells): 1860 nM
- F | % (FIG. 33B): 72%
- AUCINF | (FIG. 34B): 996.181 µg·h/mL and 997.708 µg·h/mL
- AUClast | (FIG. 34B): 987.148 µg·h/mL and 996.029 µg·h/mL
- CL | (FIG. 34B): 0.502 mL/min/kg
- CMAX | (FIG. 34B): 102393 ng/mL
- MRTINF | hr (FIG. 34B): 5.50 h
- TERMINAL t1/2 | hr (FIG. 34B): 9.81 h and 7.03 h
- TMAX | hr (FIG. 34B): 2.00 h
- Vss | (FIG. 34B): 0.166 L/kg
- half-life [3]: > 4 h

Structure (SMILES): CC[C@H](C)[C@@H]1NC(=O)[C@@](C)(NC(=O)[C@H](CCCNC(=N)N)NC(=O)[C@H](CC(C)C)NC(=O)[C@]2(C)CCCC=CCCC[C@@](C)(NC(=O)[C@H](CCCNC(=N)N)NC(C)=O)C(=O)N[C@@H](CC(C)C)C(=O)N[C@@H](CCC(N)=O)C(=O)N2)CCCC=CCCC[C@@](C)(C(=O)N[C@@H](CC(C)C)C(=O)N[C@@H](Cc2ccc3ccccc3c2)C(=O)NCCC(=O)NCCC(N)=O)NC(=O)[C@H](CCCNC(=N)N)NC(=O)[C@H](CCC(N)=O)NC1=O [WX-039, RXaa1LQXaa2LRXaa3IQRXaa4L] (Ac-R[R5]LQ[S5]LR[S5]IQR[S5]L[2Nal][βAla][βAla]-NH2; staple 2-5, 8-12)
- T helper 17 cells in tumor (B16F10 cells; [5]): increased
- dendritic cells (CD205+) in tumor (B16F10 cells; [5]): capable of suppressing dendritic cells present in tumor
- body weight change (B16F10 cells; 60 mg/kg i.p. daily): no substantial body weight change
- tumor growth compared to vehicle (B16F10 cells; 60 mg/kg i.p. daily): reduced tumor growth
- half-life [4]: ~52 h
